{"source": "patent EP0430108A2", "about": "“Use of oxetanocin-G for the treatment of varicella-zoster virus infections” (priority 1989, dated 1991)", "key": {"[1]": {"assay": "Single-dose intraperitoneal toxicity in the mouse", "type": "in vivo", "details": "400 mg/kg intraperitoneally, once", "from_the_text": "OXT-G and a pharmacologically acceptable salt thereof are each characterized by a low toxicity and a low cumulative toxicity upon repeated administration."}, "YS strain (TK^+ -VZV)": {"test_system": "YS strain (TK^+ -VZV)", "assay": "Anti-VZV activity, plaque reduction in human fetal pulmonary cells, YS strain", "type": "cell-based, varicella-zoster virus", "details": "nonresistant strain of VZV (YS, TK^+); human fetal pulmonary cell monolayer, approximately 20 PFU, 5 days at 37 °C, plaque count", "description": "(§1) Next, the anti-VZV effect of OXT-G will be described in detail by reference to the following Test Example. Anti-VZV activity: • (1) Determination method A monolayer of human fetal pulmonary cells, which had been grown in Eagle minimum essential medium containing 10 % of newborn calf serum, 60 µg/ml of kanamycin and 0.075 % of NaHCO₃, (used as a growth medium) in a 96-well microplate, was inoculated with approximately 20 PFU of various viruses and incubated at 37 °C for 2 hours. After 0.1 ml of 2 % newborn calf serum containing OXT-G was freshly supplied, the incubation was continued at 37 °C for 5 days. Plaques in each well were counted under a microscope and the ratio (%) thereof to the plaque count of a control (no addition) was calculated to prepare a graph. Based on the graph, the median effective dose (ED₅₀) was determined. The employed virus stains were as follows: YS strain: TK^+ strain (carrying thymidine kinase) isolated from a patient of varicella (TK^+ -VZV). […] Thus it is expected as an excellent anti-VZV agent."}, "YSR strain (TK^- -VZV)": {"test_system": "YSR strain (TK^- -VZV)", "assay": "Anti-VZV activity, plaque reduction in human fetal pulmonary cells, YSR strain", "type": "cell-based, varicella-zoster virus", "details": "resistant strain of VZV (YSR, TK^-, drug-resistant); human fetal pulmonary cell monolayer, approximately 20 PFU, 5 days at 37 °C, plaque count", "description": "as §1"}}}
{"smiles": "Nc1nc2c(ncn2C2OC(CO)C2CO)c(=O)[nH]1", "note": "(stereo not drawn) [OXT-G, oxetanocin-G]", "values": [{"measurement": "symptom of intoxication", "setting": "[1]", "result": "no symptom of intoxication could be observed"}, {"measurement": "antiviral effects", "setting": "YS strain (TK^+ -VZV)", "result": "excellent antiviral effects"}, {"measurement": "antiviral effects", "setting": "YSR strain (TK^- -VZV)", "result": "excellent antiviral effects"}]}
